Here are results for 20 molecules from patent US11590139B2, “Substituted aminopurine compounds, compositions thereof, and methods of treatment therewith” (Signal Pharmaceuticals, LLC, priority 2014, dated 2023).

pIC50: −log10 of the molar value. Bounds are passed on as bounds.

The test system of one assay is Lox-IMVI melanoma cell line. Kind of assay: Lox-IMVI anti-proliferative assay (growth inhibition, Cell Titer-Glo). In kind it is cell-based, human. To be noted: Homo sapiens; IC50 activity level in the cell-based Lox-IMVI anti-proliferative assay; read-out: Activity. A digest of the protocol:
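Growth inhibition is assessed over 72 h in RPMI + 10% FBS at 0.2% DMSO, with ATP-based luminescence used as the viability measure. IC50 is fitted from normalized dose-response data.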
(In general: In ATP-based viability assays light output follows the ATP content of the culture.)
In the case of `NC(=O)[C@H]1CC[C@@H](n2c(Nc3c(Cl)cc(Cl)cc3Cl)nc3cnc(NC4CCCC4)nc32)CC1` [Example 68, (1s,4s)-4-(2-(cyclopentylamino)-8-(2,4,6-trichlorophenylamino)-9H-purin-9-yl)cyclohexanecarboxamide], the pIC50 is 6.00 to 6.30. As to `C[C@@H](CO)Nc1ncc2nc(Nc3c(F)cccc3F)n([C@H]3CC[C@@H](C(N)=O)CC3)c2n1` [Example 167, (1R,4s)-4-(8-(2,6-difluorophenylamino)-2-((S)-1 hydroxypropan-2-ylamino)-9H-purin-9-yl)cyclohexanecarboxamide], the pIC50 was below 6.00. As for `CS(=O)(=O)N1CCC(Nc2ncc3nc(Nc4c(F)cccc4Cl)n([C@H]4CC[C@@H](C(N)=O)CC4)c3n2)CC1` [Example 114, (1s,4s)-4-(8-(2-chloro-6-fluorophenylamino)-2-(1-(methylsulfonyl)piperidin-4-ylamino)-9H-purin-9-yl)cyclohexanecarboxamide], the pIC50 is below 6.00. In the case of `NC(=O)[C@H]1CC[C@@H](n2c(Nc3c(Cl)cc(F)cc3Cl)nc3cnc(N[C@@H]4CCOC4)nc32)CC1` [Example 222, (1S,4s)-4-(8-(2,6-dichloro-4-fluorophenylamino)-2-((R)-tetrahydrofuran-3-ylamino)-9H-purin-9-yl)cyclohexanecarboxamide], the pIC50 is 6.00 to 6.30.

As for `C[C@H](CO)Nc1ncc2nc(Nc3c(Cl)cc(F)cc3Cl)n([C@H]3CC[C@@H](C(N)=O)CC3)c2n1` [Example 131, (1S,4s)-4-(8-(2,6-dichloro-4-fluorophenylamino)-2-((R)-1-hydroxypropan-2-ylamino)-9H-purin-9-yl)cyclohexanecarboxamide], the pIC50 was below 6.00. As to `NC(=O)[C@H]1CC[C@@H](n2c(Nc3c(Cl)cc(Cl)cc3Cl)nc3cnc(N[C@H]4CCC[C@@H](O)C4)nc32)CC1` [Example 373, (1R,4s)-4-(2-((1S,3R)-3-hydroxycyclohexylamino)-8-(2,4,6-trichlorophenylamino)-9H-purin-9-yl)cyclohexanecarboxamide], the pIC50 is 6.00 to 6.30. Still for that read-out and setting: under `NC(=O)[C@H]1CC[C@@H](n2c(Nc3c(F)ccc(Cl)c3F)nc3cnc(N[C@H]4CCC[C@@H]4O)nc32)CC1` [Example 273, (1R,4s)-4-(8-(3-chloro-2,6-difluorophenylamino)-2-((1S,2S)-2-hydroxycyclopentylamino)-9H-purin-9-yl)cyclohexanecarboxamide] stands below 6.00; under `NC(=O)[C@H]1CC[C@@H](n2c(Nc3c(F)cc(F)cc3Cl)nc3cnc(NC4CCCC4)nc32)CC1` [Example 119, (1s,4s)-4-(8-(2-chloro-4,6-difluorophenylamino)-2-(cyclopentylamino)-9H-purin-9-yl)cyclohexanecarboxamide], 6.30 to 6.60.

Turning to `NC(=O)[C@H]1CC[C@@H](n2c(Nc3c(F)ccc(Cl)c3F)nc3cnc(N[C@@H]4CCC[C@H]4O)nc32)CC1` [Example 259, (1S,4s)-4-(8-(3-chloro-2,6-difluorophenylamino)-2-((1R,2R)-2-hydroxycyclopentylamino)-9H-purin-9-yl)cyclohexanecarboxamide], the pIC50 is below 6.00.

The assay is the same for the next values; noted with them: Homo sapiens; Lox-IMVI anti-proliferative assay, IC50 activity level; read-out: Activity.
Turning to `COC(=O)N1CCC[C@@H](Nc2ncc3nc(Nc4ccc(Cl)c(F)c4F)n([C@H]4CC[C@@H](C(N)=O)CC4)c3n2)C1` [Example 411, (R)-methyl 3-(9-((1s,4S)-4-carbamoylcyclohexyl)-8-(4-chloro-2,3 difluorophenylamino)-9H-purin-2-ylamino)piperidine-1-carboxylate], the pIC50 was below 6.00. With `COC(=O)N1CCCC(Nc2ncc3nc(Nc4c(F)cc(F)cc4F)n([C@H]4CC[C@@H](C(N)=O)CC4)c3n2)C1` (stereo partly drawn) [Example 403, (R)-methyl 3-(9-((1s,4S)-4-carbamoylcyclohexyl)-8-(2,4,6-tnfluorophenylamino)-9H-purin-2-ylamino)piperidine-1-carboxylate], the pIC50 is below 6.00. Still for that read-out and setting: next, `NC(=O)[C@H]1CC[C@@H](n2c(Nc3c(F)cc(Cl)cc3F)nc3cnc(N[C@@H]4CCCC[C@H](O)C4)nc32)CC1` [Example 438, (1S,4s)-4-(8-(4-chloro-2,6-difluorophenylamino)-2-((1R,3S)-3-hydroxycycloheptylamino)-9H-purin-9-yl)cyclohexanecarboxamide]: below 6.00; `NC(=O)[C@H]1CC[C@@H](n2c(Nc3c(Cl)cc(OC(F)(F)F)cc3Cl)nc3cnc(N[C@@H]4CCC[C@H](O)C4)nc32)CC1` [Example 595, (1S,4s)-4-(8-(2,6-dichloro-4-(trifluoromethoxy)phenylamino)-2-((1R,3S)-3-hydroxycyclohexylamino)-9H-purin-9-yl)cyclohexanecarboxamide]: below 6.00. As for `NC(=O)[C@H]1CC[C@@H](n2c(Nc3c(F)cc(F)cc3F)nc3cnc(NC4CCCOCC4)nc32)CC1` (some centres unmarked) [Example 536, (1s,4s)-4-(2-(oxepan-4-ylamino)-8-(2,4,6-trifluorophenylamino)-9H-purin-9-yl)cyclohexanecarboxamide], the pIC50 was 6.00 to 6.30.

Still in this assay, the particulars now being: Homo sapiens; Lox-IMVI melanoma cell line, anti-proliferative assay; read-out: Activity (IC50 activity level).
Turning to `CNC(=O)N1CCC[C@@H](Nc2ncc3nc(Nc4c(Cl)cc(Cl)cc4Cl)n([C@H]4CC[C@@H](C(N)=O)CC4)c3n2)C1` [Example 705, (R)-3-(9-((1s,4S)-4-carbamoylcyclohexyl)-8-(2,4,6-trichlorophenylamino)-9H-purin-2-ylamino)-N-methylpiperidine-1-carboxamide], the pIC50 was below 6.00. Turning to `C[C@]1(C(N)=O)CC[C@@H](n2c(Nc3c(F)cc(Cl)cc3F)nc3cnc(N[C@@H]4CC[C@@H](O)C4)nc32)CC1` [Example 639, (1S,4s)-4-(8-(4-chloro-2,6-difluorophenylamino)-2-((1R,3R)-3-hydroxycyclopentylamino)-9H-purin-9-yl)-1-methylcyclohexanecarboxamide], the pIC50 is above 6.60.

In the case of `NC(=O)[C@H]1CC[C@@H](n2c(Nc3c(F)cc(Cl)cc3F)nc3cnc(N[C@@H]4CCCN(C(=O)Nc5ccccc5)C4)nc32)CC1` [Example 782, (R)-3-(9-((1s,4S)-4-carbamoylcyclohexyl)-8-(4-chloro-2,6-difluorophenylamino)-9H-purin-2-ylamino)-N-phenylpiperidine-1-carboxamide], the pIC50 is below 6.00. On to `C[C@]1(C(N)=O)CC[C@@H](n2c(Nc3c(F)cc(F)cc3Cl)nc3cnc(N[C@H]4CCC[C@H](O)C4)nc32)CC1` [Example 610, (1R,4s)-4-(8-(2-chloro-4,6-difluorophenylamino)-2-((1S,3S)-3-hydroxycyclohexylamino)-9H-purin-9-yl)-1-methylcyclohexanecarboxamide], for which the pIC50 is 6.30 to 6.60.

For `CC(C)OC(=O)N1CCC[C@@H](Nc2ncc3nc(Nc4c(Cl)cc(C(F)(F)F)cc4Cl)n([C@H]4CC[C@@H](C(N)=O)CC4)c3n2)C1` [Example 770, (R)-isopropyl 3-(9-((1s,4S)-4-carbamoylcyclohexyl)-8-(2,6-dichloro-4-(trifluoromethyl)phenylamino)-9H-purin-2-ylamino)piperidine-1-carboxylate], the pIC50 is below 6.00.

For `N#Cc1cc(Cl)c(Nc2nc3cnc(NC4CCC(N5C(=O)CCC5=O)CC4)nc3n2[C@H]2CC[C@@H](C(N)=O)CC2)c(Cl)c1` (some centres unmarked) [Example 668, (1s,4s)-4-(8-(2,6-dichloro-4-cyanophenylamino)-2-(4-(2,5-dioxopyrrolidin-1-yl)cyclohexylamino)-9H-purin-9-yl)cyclohexanecarboxamide], the pIC50 is below 6.00.
